Test results published in patent publication US20260083714A1, “DOSING REGIMEN FOR TREATING PKU WITH A PIPERIDINE INHIBITOR OF SLC6A19 FUNCTION” (Jnana Therapeutics Inc., priority 2022, published 2026).

Experiments:
[1] = Plasma levels of Compound 1 over 24 hours after 14 days of suspension administration in healthy volunteers; type: in vivo; details: human, oral; for concentration at 0 h: 0 h post-dose; for concentration at 0.5 h: 0.5 h post-dose; for concentration at 1 h: 1 h post-dose; for concentration at 1.5 h: 1.5 h post-dose; for concentration at 2 h: 2 h post-dose; for concentration at 2.5 h: 2.5 h post-dose; for concentration at 3 h: 3 h post-dose; for concentration at 4 h: 4 h post-dose; for concentration at 6 h: 6 h post-dose; for concentration at 8 h: 8 h post-dose; for concentration at 8.5 h: 8.5 h post-dose; for concentration at 9 h: 9 h post-dose; for concentration at 9.5 h: 9.5 h post-dose; for concentration at 10 h: 10 h post-dose; for concentration at 10.5 h: 10.5 h post-dose; for concentration at 11.5 h: 11.5 h post-dose; for concentration at 12 h: 12 h post-dose; for concentration at 14 h: 14 h post-dose; for concentration at 16 h: 16 h post-dose; for concentration at 24 h: 24 h post-dose
Description: FIG. 2 is an assessment of the pharmacokinetics of Compound 1 in healthy volunteers over 24 hours after 14 days of administration of a suspension of the compound at three different doses (25 or 75 mg twice daily [BID] or 150 mg once daily [QD]).
A suspension formulation of varying doses of Compound 1 (25 or 75 mg twice daily [BID] or 150 mg once daily [QD]) was administered to healthy volunteers. Plasma levels of Compound 1 over 24 hours after 14 days of administration were measured (FIG. 2). Post-dose plasma levels are recited in Table 14.

SLC6A19 = biological target: T1, SLC6A19 (Homo sapiens, UniProt Q695T7); assay: 24 h excretion of phenylalanine and Hartnup amino acids at Day 1, 7 and 14 of suspension administration in healthy volunteers; type: in vivo; details: for Hartnup Amino Acids excretion over 24 hours, Mean / Phenylalanine excretion over 24 hours, Mean: in mg
T1 construct: SCL6A19 is located in the proximal tubule of the kidney and is responsible for reabsorption of amino acids back into the blood; from tissue; host or cells: Kidney proximal tubule of healthy volunteers (in vivo, endogenous)
T1 sequence (Q695T7 1-634): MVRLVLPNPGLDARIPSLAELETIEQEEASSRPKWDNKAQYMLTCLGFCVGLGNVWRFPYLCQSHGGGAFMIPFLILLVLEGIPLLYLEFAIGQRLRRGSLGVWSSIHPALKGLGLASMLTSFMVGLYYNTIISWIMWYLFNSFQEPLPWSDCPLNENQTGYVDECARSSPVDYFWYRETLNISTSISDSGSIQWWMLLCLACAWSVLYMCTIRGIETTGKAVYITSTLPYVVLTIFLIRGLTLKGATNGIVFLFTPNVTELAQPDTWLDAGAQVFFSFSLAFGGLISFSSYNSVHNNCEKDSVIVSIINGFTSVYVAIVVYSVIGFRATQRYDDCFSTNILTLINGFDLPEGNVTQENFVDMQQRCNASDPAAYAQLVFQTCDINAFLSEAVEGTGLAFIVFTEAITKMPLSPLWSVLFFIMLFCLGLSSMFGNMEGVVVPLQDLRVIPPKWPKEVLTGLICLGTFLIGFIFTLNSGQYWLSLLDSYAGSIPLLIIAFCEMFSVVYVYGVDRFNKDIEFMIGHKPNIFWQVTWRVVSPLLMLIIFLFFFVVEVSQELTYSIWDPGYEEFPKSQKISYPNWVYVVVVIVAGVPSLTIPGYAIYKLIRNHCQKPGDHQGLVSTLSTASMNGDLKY
T1 sequence (Q9HBJ8 15-222 partner): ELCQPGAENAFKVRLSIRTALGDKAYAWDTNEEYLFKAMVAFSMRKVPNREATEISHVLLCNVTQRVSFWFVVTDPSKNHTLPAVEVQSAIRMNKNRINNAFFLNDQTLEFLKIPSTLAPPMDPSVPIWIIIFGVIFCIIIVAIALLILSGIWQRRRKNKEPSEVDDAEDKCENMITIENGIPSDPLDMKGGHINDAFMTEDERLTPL
Description: FIG. 3A is a graph of the pharmacodynamic effect of Compound 1 over time in healthy volunteers by measuring changes in total overall SLC6A19 amino acid substrates (Hartnup amino acids) over 14 days of administration of a suspension of the compound at three different doses (25 or 75 mg twice daily [BID] or 150 mg once daily [QD]).
FIG. 3B is a graph of the pharmacodynamic effect of Compound 1 over time in healthy volunteers by measuring changes in total 24 hour phenylalanine over 14 days of administration of a suspension of the compound at three different doses (25 or 75 mg twice daily [BID] or 150 mg once daily [QD]).
A suspension formulation of varying doses of Compound 1 (25 or 75 mg twice daily [BID] or 150 mg once daily [QD]) was administered to healthy volunteers. Changes in excretion of phenylalanine or overall SLC6A19 amino acid substrates (Hartnup amino acids) over 24 hours were measured at Day 1, 7 and 14 (FIGS. 3A and 3B). Urinary excretion of Hartnup amino acids over 24 hours increased from 0.4 g w/ PBO to 4.9 g w/ the compound 75 mg BID (13-fold increase) (Table 15A).

concentration at 0 h ([1]; 25 mg BID suspension): 186 ng/mL
concentration at 0.5 h ([1]; 25 mg BID suspension): 1190 ng/mL
concentration at 1 h ([1]; 25 mg BID suspension): 1090 ng/mL
concentration at 1.5 h ([1]; 25 mg BID suspension): 1000 ng/mL
concentration at 2 h ([1]; 25 mg BID suspension): 922 ng/mL
concentration at 2.5 h ([1]; 25 mg BID suspension): 899 ng/mL
concentration at 3 h ([1]; 25 mg BID suspension): 820 ng/mL
concentration at 4 h ([1]; 25 mg BID suspension): 682 ng/mL
concentration at 6 h ([1]; 25 mg BID suspension): 442 ng/mL
concentration at 8 h ([1]; 25 mg BID suspension): 336 ng/mL
concentration at 8.5 h ([1]; 25 mg BID suspension): 894 ng/mL
concentration at 9 h ([1]; 25 mg BID suspension): 977 ng/mL
concentration at 9.5 h ([1]; 25 mg BID suspension): 1010 ng/mL
concentration at 10 h ([1]; 25 mg BID suspension): 1010 ng/mL
concentration at 10.5 h ([1]; 25 mg BID suspension): 957 ng/mL
concentration at 11.5 h ([1]; 25 mg BID suspension): 909 ng/mL
concentration at 12 h ([1]; 25 mg BID suspension): 748 ng/mL
concentration at 14 h ([1]; 25 mg BID suspension): 562 ng/mL
concentration at 16 h ([1]; 25 mg BID suspension): 422 ng/mL
concentration at 24 h ([1]; 25 mg BID suspension): 193 ng/mL
concentration at 0 h ([1]; 75 mg BID suspension): 916 ng/mL
concentration at 0.5 h ([1]; 75 mg BID suspension): 3350 ng/mL
concentration at 1 h ([1]; 75 mg BID suspension): 3860 ng/mL
concentration at 1.5 h ([1]; 75 mg BID suspension): 3550 ng/mL
concentration at 2 h ([1]; 75 mg BID suspension): 3330 ng/mL
concentration at 2.5 h ([1]; 75 mg BID suspension): 3140 ng/mL
concentration at 3 h ([1]; 75 mg BID suspension): 2910 ng/mL
concentration at 4 h ([1]; 75 mg BID suspension): 2610 ng/mL
concentration at 6 h ([1]; 75 mg BID suspension): 2000 ng/mL
concentration at 8 h ([1]; 75 mg BID suspension): 1600 ng/mL
concentration at 8.5 h ([1]; 75 mg BID suspension): 3430 ng/mL
concentration at 9 h ([1]; 75 mg BID suspension): 3600 ng/mL
concentration at 9.5 h ([1]; 75 mg BID suspension): 3740 ng/mL
concentration at 10 h ([1]; 75 mg BID suspension): 3600 ng/mL
concentration at 10.5 h ([1]; 75 mg BID suspension): 3740 ng/mL
concentration at 11.5 h ([1]; 75 mg BID suspension): 3200 ng/mL
concentration at 12 h ([1]; 75 mg BID suspension): 2900 ng/mL
concentration at 14 h ([1]; 75 mg BID suspension): 2280 ng/mL
concentration at 16 h ([1]; 75 mg BID suspension): 1850 ng/mL
concentration at 24 h ([1]; 75 mg BID suspension): 741 ng/mL
concentration at 0 h ([1]; 150 mg QD suspension): 299 ng/mL
concentration at 0.5 h ([1]; 150 mg QD suspension): 4230 ng/mL
concentration at 1 h ([1]; 150 mg QD suspension): 4590 ng/mL
concentration at 1.5 h ([1]; 150 mg QD suspension): 4360 ng/mL
concentration at 2 h ([1]; 150 mg QD suspension): 4100 ng/mL
concentration at 2.5 h ([1]; 150 mg QD suspension): 3940 ng/mL
concentration at 3 h ([1]; 150 mg QD suspension): 3660 ng/mL
concentration at 4 h ([1]; 150 mg QD suspension): 3130 ng/mL
concentration at 6 h ([1]; 150 mg QD suspension): 2270 ng/mL
concentration at 8 h ([1]; 150 mg QD suspension): 1750 ng/mL
concentration at 10 h ([1]; 150 mg QD suspension): 1360 ng/mL
concentration at 12 h ([1]; 150 mg QD suspension): 1000 ng/mL
concentration at 24 h ([1]; 150 mg QD suspension): 247 ng/mL
Hartnup Amino Acids excretion over 24 hours, Mean (SLC6A19; 25 mg BID suspension, Day 1): 2123.44
Phenylalanine excretion over 24 hours, Mean (SLC6A19; 25 mg BID suspension, Day 1): 37.38
Hartnup Amino Acids excretion over 24 hours, Mean (SLC6A19; 25 mg BID suspension, Day 7): 1835.21
Phenylalanine excretion over 24 hours, Mean (SLC6A19; 25 mg BID suspension, Day 7): 35.22
Hartnup Amino Acids excretion over 24 hours, Mean (SLC6A19; 25 mg BID suspension, Day 14): 1427.77
Phenylalanine excretion over 24 hours, Mean (SLC6A19; 25 mg BID suspension, Day 14): 19.65
increase of urinary excretion of Hartnup amino acids over 24 hours (SLC6A19; 75 mg BID suspension versus PBO (0.4 g)): 13 fold
Hartnup Amino Acids excretion over 24 hours, Mean (SLC6A19; 75 mg BID suspension, Day 1): 4472.55
Phenylalanine excretion over 24 hours, Mean (SLC6A19; 75 mg BID suspension, Day 1): 105.25
Hartnup Amino Acids excretion over 24 hours, Mean (SLC6A19; 75 mg BID suspension, Day 7): 4398.31
Phenylalanine excretion over 24 hours, Mean (SLC6A19; 75 mg BID suspension, Day 7): 70.98
Hartnup Amino Acids excretion over 24 hours, Mean (SLC6A19; 75 mg BID suspension, Day 14): 4922.75
Phenylalanine excretion over 24 hours, Mean (SLC6A19; 75 mg BID suspension, Day 14): 88.64
Urinary excretion of Hartnup amino acids over 24 hours (SLC6A19; 75 mg BID suspension, healthy volunteers): 4.9 g
Hartnup Amino Acids excretion over 24 hours, Mean (SLC6A19; 150 mg QD suspension, Day 1): 3861.43
Phenylalanine excretion over 24 hours, Mean (SLC6A19; 150 mg QD suspension, Day 1): 106.76
Hartnup Amino Acids excretion over 24 hours, Mean (SLC6A19; 150 mg QD suspension, Day 7): 6785.54
Phenylalanine excretion over 24 hours, Mean (SLC6A19; 150 mg QD suspension, Day 7): 166.71
Hartnup Amino Acids excretion over 24 hours, Mean (SLC6A19; 150 mg QD suspension, Day 14): 3737.47
Phenylalanine excretion over 24 hours, Mean (SLC6A19; 150 mg QD suspension, Day 14): 72.43
Structure (SMILES): NC(=O)N1CCC[C@@H](N(C(=O)NCc2ccc(OC(F)(F)F)cc2F)C2CC2)C1 [Cpd 1, (R)-3-(1-cyclopropyl-3-(2-fluoro-4-(trifluoromethoxy)benzyl)ureido) piperidine-1-carboxamide]
